Results taken from paper PMC8518794 (2021).

How the values were obtained:
[1] = system: pApU (poly rA–poly rU; polyAU) (RNA, polymer) A/U; assay: UV thermal denaturation; settings: Na+ (sodium cacodylate); pH 7; r[compound]/[polynucleotide] = 0.3; error ±0.5 °C; per base
[2] = system: pApU (poly rA–poly rU; polyAU) (RNA, polymer) A/U; assay: fluorimetric titration, Scatchard / McGhee-von Hippel; settings: Na+ (sodium cacodylate); pH 7; sodium cacodylate buffer; r fixed at 0.25; compound 1×10^-7 M; per base
[3] = system: pApU (poly rA–poly rU; polyAU) (RNA, polymer) A/U; assay: fluorimetric titration; settings: Na+ (sodium cacodylate); pH 7; compound 1×10^-7 M; negligible emission change

Row | Compound | ΔTm [1] [°C] | log Ks [2] | binding [3]
1 | Cc1cc(C)c(B(c2c(C)cc(-c3ccc(-c4ccc(-c5cc(C)c(B(c6c(C)cc(C)cc6C)c6c(C)cc([N+](C)(C)C)cc6C)c(C)c5)s4)s3)cc2C)c2c(C)cc([N+](C)(C)C)cc2C)c(C)c1 | 13.0 | 7.8 | –
2 | Cc1cc(C)c(B(c2c(C)cc(-c3ccc(-c4ccc(-c5cc(C)c(B(c6c(C)cc([N+](C)(C)C)cc6C)c6c(C)cc([N+](C)(C)C)cc6C)c(C)c5)s4)s3)cc2C)c2c(C)cc([N+](C)(C)C)cc2C)c(C)c1 | 5.5 | 7.5 | –
3 | Cc1cc(C)c(B(c2c(C)cc(C)cc2C)c2c(C)cc(-c3ccc(-c4ccc(-c5cc(C)c(B(c6c(C)cc(C)cc6C)c6c(C)cc([N+](C)(C)C)cc6C)c(C)c5)s4)s3)cc2C)c(C)c1 | 0 | – | no
4 | Cc1cc(C)c(B(c2c(C)cc(C)cc2C)c2c(C)cc(-c3ccc(-c4ccc(-c5cc(C)c(B(c6c(C)cc([N+](C)(C)C)cc6C)c6c(C)cc([N+](C)(C)C)cc6C)c(C)c5)s4)s3)cc2C)c(C)c1 | 11.1 | 7.0 | –
